Source: publication PMC8719441, “Tonoplast-Localized Theanine Transporter CsCAT2 May Mediate Theanine Storage in the Root of Tea Plants (Camellia sinensis L.)” (Frontiers in Plant Science, 2021)

Target: T1, CsCAT2 (Camellia sinensis, UniProt A0A2R3U877)
T1 construct: gene CAT2; no tag mentioned
Assay: competition with theanine uptake in yeast […]Δ[…]α-CsCAT2, HPLC-UV; growth on sole nitrogen source
Type: cell-based
Conditions: 200 μM theanine, 10 min

Row | Molecule | % theanine uptake at 2 mM competitor
1 | NC(=O)CC[C@H](N)C(=O)O [glutamine] | CsCAT2's capacity to transport theanine was significantly suppressed by these amino acids
2 | N[C@@H](CC(=O)O)C(=O)O [aspartic acid] | CsCAT2's capacity to transport theanine was significantly suppressed by these amino acids
3 | N[C@@H](CCC(=O)O)C(=O)O [glutamate] | CsCAT2's capacity to transport theanine was significantly suppressed by these amino acids
4 | C[C@H](N)C(=O)O [alanine] | CsCAT2's capacity to transport theanine was significantly suppressed by these amino acids
5 | CC(C)[C@H](N)C(=O)O [valine] | CsCAT2's capacity to transport theanine was significantly suppressed by these amino acids

Substrate: CCNC(=O)CC[C@H](N)C(=O)O
Assay: cells, lysate or membranes
Type: cell-based, Camellia sinensis
Conditions: 0.09375-8 mM theanine, 0-20 min, after 2 h nitrogen starvation; H+-coupled

Row | Molecule | Km [µM]
6 | CsCAT2 (Camellia sinensis) (protein, no tag mentioned) MGFRCDSQNDGGACPWTCGFKGLIRRKQVDSIHAKSSGSGHHQLAKELSVFHLIAIGVGSTIGAGVYILVGTVAREHSGPALTFSFLIAGIAAALSAFCYAELASRCPSAGSAYHYSYICVGEGVAWLIGWALILEYTIGGSAVARGISPNLALLFGGADSLPFFLARQHLPGLDIVVDPCAALLVIVVTGLLCVGIKESTLVQSIVTTANVCAMLFVIIAGGYLGFKSGWVGYELPVGYFPFGVDGMLAGAATVFFAYIGFDSVASTAEEVKNPQRDLPLGIAAALSICCMLYMLVSVVIVGLVPYYAMDPDTPISSAFASHGMQWAAYIITAGATTALCSTLMGSMLPQPRILMAMSRDGLLPSIFSDVNKRTQVPIKSTVITGVVAAILAFIMDVEQLAGMVSVGTLLAFTMVAISVLILRYVPPDEVPIPSSLQESIDSVSLRYSTSNDNIEEEKPKDHIGSSTQSTRLLLGKVDRPIAYPLIPKQAATILNDNRRKIAGWTIMFTCVGVLLLTSAASSVGLLPSYFRFGVCGIGVVLILSGLVVLTCIDQDDARHSFGHTGGFICPFVPLLPIACVLINVYLLINLGSATWTRVSIWLLIGVLVYAFYGRTHSSLKDAVYVPATHVEEIYRSSENSLP | 450
